Reference: patent US9212168B2 (priority 2011, dated 2015)

Assays:
HCV genotype 1b replicon = HCV genotype 1b replicon assay (Renilla luciferase readout); format: cell-based, hepatitis C virus; settings: for Genotype 1b: HCV genotype 1b replicon; for EC50: Hepatitis C virus, read-out: Genotype 1b
Method in brief: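 Reported as pEC50 derived from a 4-parameter fit of Renilla luciferase activity against concentration. Replicon cells (APC144, Huh7 background) were exposed to compound for 48 h in G418-free medium with final 0.5% DMSO, after seeding at 10,000 cells/well and 4 h adherence.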

HCV genotype 1a replicon = HCV genotype 1a replicon assay (NS3 protease activity readout); format: cell-based, hepatitis C virus; settings: for Genotype 1a: HCV genotype 1a replicon; for EC50: Hepatitis C virus, read-out: Genotype 1a, HCV genotype 1a replicon
Method in brief: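 EC50 values came from a 4-parameter robust fit of fluorescence (ex 340, em 509 nm) produced by NS3-specific protease in lysates, assayed with 15 μM FRET substrate for 20 min at 37° C, after 48 or 72 hours of compound exposure (0.5% DMSO) of Huh7.5-derived APC89 genotype 1a replicon cells.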

Compound	Genotype 1b (HCV genotype 1b replicon)	Genotype 1a (HCV genotype 1a replicon)	EC50 (HCV genotype 1b replicon) [nM]	EC50 (HCV genotype 1a replicon) [nM]
COCC1(C(=O)N2CCN(c3ccc(C(=O)Nc4cc(OC(F)(F)F)c(-c5ccc(-c6c[nH]c([C@@H]7C[C@H](OC)CN7C(=O)[C@@H](NC(=O)OC)C7CCOCC7)n6)cc5)cc4Cl)cn3)[C@H](C)C2)CC1 [Example 28-21]	D (D represents pEC50>10 (EC50<0.1 nM))	D (D represents pEC50>10 (EC50<0.1 nM))	–	–
COCC1(C(=O)N2CCN(c3ccc(C(=O)Nc4cc(OC(F)(F)F)c(-c5ccc(-c6c[nH]c([C@@H]7C[C@H](OC)CN7C(=O)[C@@H](NC(=O)OC)C7CCOCC7)n6)cc5)cc4Cl)cn3)[C@H](C)C2)CCC1 [Example 28-22]	D (D represents pEC50>10 (EC50<0.1 nM))	D (D represents pEC50>10 (EC50<0.1 nM))	–	–
COC(=O)N[C@H](C(=O)N1C[C@@H](C)C[C@H]1c1nc(-c2ccc(-c3cc(Cl)c(NC(=O)c4ccc(N5CCN(C(=O)C(C)(C)C)C[C@H]5C)nc4)cc3OC(F)(F)F)cc2)c(CO)[nH]1)C1CCOCC1 [Example 20-2]	D (D represents pEC50>10 (EC50<0.1 nM))	D (D represents pEC50>10 (EC50<0.1 nM))	–	–
COC(=O)NC(C(=O)N1CC(OC)CC1c1nc(-c2ccc(-c3cc(F)c(NC(=O)c4ccc(N5CCN(C(=O)C(C)(C)CO)CC5C)nc4)cc3OC(F)(F)F)cc2)c[nH]1)C(C)(C)O (stereo not shown) [Example 16-14]	D (D represents pEC50>10 (EC50<0.1 nM))	D (D represents pEC50>10 (EC50<0.1 nM))	–	–
C[C@H]1C[C@@H](c2nc(-c3ccc(-c4cc(Cl)c(NC(=O)c5ccc(N6CCN(C(=O)C(C)(C)C)C[C@H]6C)nc5)cc4OC(F)(F)F)cc3)c[nH]2)N(C(=O)[C@@H](c2ccccc2)N2CCCCC2)C1 [Example 13-1]	–	–	< 0.1	< 0.1
COC(=O)NC(C(=O)N1CC(OC)CC1c1nc(-c2ccc(-c3cc(F)c(NC(=O)c4ccc(N5CCN(C(=O)C(C)(C)CO)CC5C)nc4)cc3OC(F)(F)F)cc2)c[nH]1)C(C)OC (stereo not shown) [Example 16-13]	D (D represents pEC50>10 (EC50<0.1 nM))	D (D represents pEC50>10 (EC50<0.1 nM))	–	–
COC(=O)N[C@H](C(=O)N1C[C@@H](OC)C[C@H]1c1nc(-c2ccc(-c3ccc(NC(=O)c4ccc(N5CCN(C(=O)C(C)(C)C)C[C@H]5C)nc4)cc3OC(F)(F)F)cc2)c[nH]1)C(C)C [Example 27-8]	D (D represents pEC50>10 (EC50<0.1 nM))	D (D represents pEC50>10 (EC50<0.1 nM))	–	–
COC(=O)N[C@H](C(=O)N1C[C@@H](C)C[C@H]1c1nc(-c2ccc(-c3cc(Cl)c(NC(=O)c4ccc(N5CCN(C(=O)C(C)(C)C)C[C@@H]5C)nc4)cc3OC(F)(F)F)cc2)c[nH]1)C1CCOCC1 [Example 20-4]	D (D represents pEC50>10 (EC50<0.1 nM))	D (D represents pEC50>10 (EC50<0.1 nM))	–	–
COC(=O)N[C@H](C(=O)N1C[C@@H](C)C[C@H]1c1nc(-c2ccc(-c3ccc(C(=O)Nc4ccc(N5CCN(C(=O)[C@H]6CC6(C)C)C[C@H]5C)nc4)cc3)cc2)c(Cl)[nH]1)C1CCOCC1 [Example 22-11]	D (D represents pEC50>10 (EC50<0.1 nM))	D (D represents pEC50>10 (EC50<0.1 nM))	–	–
COC(=O)N[C@H](C(=O)N1C[C@@H](OC)C[C@H]1c1nc(-c2ccc(-c3ccc(C(=O)Nc4ccc(N5CCN(C(=O)C(C)(C)C)C[C@H]5C)nc4)cc3)cc2)c[nH]1)C1CCOCC1 [Example 22-13]	D (D represents pEC50>10 (EC50<0.1 nM))	D (D represents pEC50>10 (EC50<0.1 nM))	–	–
COC(=O)N[C@H](C(=O)N1C[C@@H](O)C[C@H]1c1nc(-c2ccc(-c3ccc(NC(=O)c4ccc(N5CCN(C(=O)[C@H]6CC6(C)C)C[C@H]5C)nc4)cc3)cc2)c[nH]1)C(C)C [Example 26-4]	D (D represents pEC50>10 (EC50<0.1 nM))	C (C represents pEC50 between and 9 and about 10, (EC50 between 1 nM and 0.1 nM))	–	–
COC(=O)N[C@H](C(=O)N1C[C@@H](OC)C[C@H]1c1nc(-c2ccc(-c3cc(Cl)c(NC(=O)c4ccc(N5C[C@H](C)N(C(=O)C(C)(C)C)C[C@H]5C)nc4)cc3OC(F)(F)F)cc2)c[nH]1)C1CCOCC1 [Example 28-7]	D (D represents pEC50>10 (EC50<0.1 nM))	D (D represents pEC50>10 (EC50<0.1 nM))	–	–
COC(=O)N[C@H](C(=O)N1C[C@@H](C)C[C@H]1c1nc(-c2ccc(-c3cc(Cl)c(NC(=O)c4ccc(N5CCN(C(=O)C(C)(C)CO)C[C@H]5C)nc4)cc3OC(F)(F)F)cc2)c[nH]1)[C@H](C)O [Example 13-17]	–	–	< 0.1	< 0.1
COC(=O)N[C@H](C(=O)N1C[C@@H](C)C[C@H]1c1nc(-c2ccc(-c3cc(F)c(NC(=O)c4ccc(N5CCN(C(=O)C(C)(C)CO)C[C@H]5C)nc4)cc3OC(F)(F)F)cc2)c[nH]1)C1CCOCC1 [Example 13-27]	–	–	< 0.1	< 0.1
COC(=O)N[C@H](C(=O)N1C[C@@H](C)C[C@H]1c1nc(-c2ccc(-c3cc(Cl)c(NC(=O)c4ccc(N5CCN(C(=O)C67CC(CO)(C6)C7)C[C@H]5C)nc4)cc3OC(F)(F)F)cc2)c[nH]1)C(C)C [Example 12-50]	–	–	< 0.1	< 0.1
CNC(=O)N1CCC[C@@]1(C)C(=O)N1CCN(c2ccc(NC(=O)c3ccc(-c4ccc(-c5c[nH]c([C@@H]6C[C@H](C)CN6C(=O)[C@@H](NC(=O)OC)C(C)C)n5)cc4)c(OC(F)(F)F)c3)cn2)[C@H](C)C1 [Example 4-6]	D (D represents pEC50>10 (EC50<0.1 nM))	D (D represents pEC50>10 (EC50<0.1 nM))	–	–
COC(=O)N[C@H](C(=O)N1C[C@@H](C)C[C@H]1c1nc(-c2ccc(-c3ccc(C(=O)Nc4ccc(N5C[C@H](C)N(C(=O)C6CC6)C[C@H]5C)nc4)cc3OC(F)(F)F)cc2)c(Cl)[nH]1)C(C)C [Example 4-11]	D (D represents pEC50>10 (EC50<0.1 nM))	D (D represents pEC50>10 (EC50<0.1 nM))	–	–
COC(=O)N[C@H](C(=O)N1[C@@H]2C[C@@H]2C[C@H]1c1nc(-c2ccc(-c3cc(Cl)c(NC(=O)c4ccc(N5CCN(C(=O)C(C)(C)C)C[C@H]5C)nc4)cc3OC(F)(F)F)cc2)c[nH]1)C(C)C [Example 8-2]	–	–	< 0.1	< 0.1
COC(=O)N[C@H](C(=O)N1[C@@H](C)CC[C@H]1c1nc(-c2ccc(-c3cc(Cl)c(C(=O)Nc4ccc(N5CCN(C(=O)C(C)(C)C)C[C@H]5C)nc4)cc3OC(F)(F)F)cc2)c[nH]1)C1CCOCC1 [Example 18-5]	D (D represents pEC50>10 (EC50<0.1 nM))	D (D represents pEC50>10 (EC50<0.1 nM))	–	–
COC(=O)N[C@H](C(=O)N1C[C@@H](OC)C[C@H]1c1nc(-c2ccc(-c3cc(F)c(NC(=O)c4ccc(N5CCN(C(=O)C(C)(C)C)C[C@H]5C)nc4)cc3OC(F)(F)F)cc2)c[nH]1)C(C)C [Example 27-3]	D (D represents pEC50>10 (EC50<0.1 nM))	D (D represents pEC50>10 (EC50<0.1 nM))	–	–
COC(=O)N[C@H](C(=O)N1C[C@@H](C)C[C@H]1c1nc(-c2ccc(-c3cc(F)c(NC(=O)c4ccc(N5CCN(C(=O)C(C)(C)CO)C[C@H]5C)nc4)cc3OC(F)(F)F)cc2)c[nH]1)C(C)C [Example 1-101]	D (D represents pEC50>10 (EC50<0.1 nM))	D (D represents pEC50>10 (EC50<0.1 nM))	–	–
COC(=O)N[C@H](C(=O)N1C[C@@H](C)C[C@H]1c1nc(-c2ccc(-c3cc(Cl)c(NC(=O)c4ccc(N5CCN(C(=O)C(C)(C)C)C[C@H]5C)nc4)cc3OC(F)(F)F)cc2)c[nH]1)C(C)(C)O [Example 13-5]	–	–	< 0.1	< 0.1
COC(=O)N[C@H](C(=O)N1C[C@@H](C)C[C@H]1c1nc(-c2ccc(-c3ccc(C(=O)Nc4ccc(N5CCN(C(=O)C(C)(C)CO)C[C@H]5C)nc4)cc3OC(F)(F)F)cc2)c(Cl)[nH]1)C1CCOCC1 [Example 22-8]	D (D represents pEC50>10 (EC50<0.1 nM))	D (D represents pEC50>10 (EC50<0.1 nM))	–	–
COC(=O)N[C@H](C(=O)N1C[C@@H](C)C[C@H]1c1nc(-c2ccc(-c3cc(F)c(NC(=O)c4ccc(N5CCN(C(=O)C6CC6)C[C@H]5C)nc4)cc3OC(F)(F)F)cc2)c[nH]1)C(C)C [Example 1-3]	D (D represents pEC50>10 (EC50<0.1 nM))	D (D represents pEC50>10 (EC50<0.1 nM))	–	–
COC(=O)N[C@H](C(=O)N1C[C@@H](OC)C[C@H]1c1nc(-c2ccc(-c3cc(Cl)c(C(=O)Nc4ccc(N5CCN(C(=O)C(C)(C)C)C[C@H]5C)nc4)cc3OC(F)(F)F)cc2)c[nH]1)C1CCOCC1 [Example 22-16]	D (D represents pEC50>10 (EC50<0.1 nM))	D (D represents pEC50>10 (EC50<0.1 nM))	–	–
COC(=O)NC(C(=O)N1CC(C)CC1c1nc(-c2ccc(-c3ccc(NC(=O)c4ccc(N5CCN(C(=O)C(C)(C)CO)CC5C)nc4)cc3OC(F)(F)F)cc2)c[nH]1)C(C)C (stereo not shown) [Example 13-29]	D (D represents pEC50>10 (EC50<0.1 nM))	D (D represents pEC50>10 (EC50<0.1 nM))	–	–
